The target in test [1] is T1, LXRβ ligand-binding domain (Homo sapiens, UniProt P55055, DUP175-175).
T1 construct: amino acids 156-461; NP009052; made in house; host or cells: E. coli
T1 sequence (P55055 with tags, fused parts or gaps DUP175-175 limits assumed): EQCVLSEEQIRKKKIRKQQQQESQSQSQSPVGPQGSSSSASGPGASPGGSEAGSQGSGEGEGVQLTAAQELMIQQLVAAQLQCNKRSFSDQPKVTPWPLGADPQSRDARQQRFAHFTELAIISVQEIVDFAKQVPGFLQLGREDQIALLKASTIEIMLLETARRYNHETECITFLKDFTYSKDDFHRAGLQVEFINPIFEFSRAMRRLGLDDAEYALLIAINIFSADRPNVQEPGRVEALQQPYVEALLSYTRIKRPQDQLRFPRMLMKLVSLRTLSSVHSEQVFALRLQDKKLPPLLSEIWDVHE
The test is described as follows: TR-FRETβ activity assay (NCoA3 coactivator peptide recruitment). In kind it is biochemical. Put shortly: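 GST-tagged human LXRβ LBD (aa 156-461, E. coli) at 76 nM with 400 nM biotinylated NCoA3 peptide in Tris/HCl pH 6.8, 240 mM KCl, BSA, 0.002% Triton-X-100, plus 1 μM 24(S)-25-epoxycholesterol as prestimulating agonist. Compounds at 50 μM down to 0.002 μM, 1 h at 4 °C. Coactivator recruitment by TR-FRET (Tb cryptate/XL665, 615/665 nm), triplicates.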

The target of test [2] is T2, full length (FL) LXRβ (Homo sapiens, UniProt P55055, DUP175-175).
T2 construct: the full length (FL) proteins of LXRα (amino acids 1-447); NP005684; NP009052; expressed in transfected cells; host or cells: HEK293
T2 sequence (P55055 with tags, fused parts or gaps DUP175-175): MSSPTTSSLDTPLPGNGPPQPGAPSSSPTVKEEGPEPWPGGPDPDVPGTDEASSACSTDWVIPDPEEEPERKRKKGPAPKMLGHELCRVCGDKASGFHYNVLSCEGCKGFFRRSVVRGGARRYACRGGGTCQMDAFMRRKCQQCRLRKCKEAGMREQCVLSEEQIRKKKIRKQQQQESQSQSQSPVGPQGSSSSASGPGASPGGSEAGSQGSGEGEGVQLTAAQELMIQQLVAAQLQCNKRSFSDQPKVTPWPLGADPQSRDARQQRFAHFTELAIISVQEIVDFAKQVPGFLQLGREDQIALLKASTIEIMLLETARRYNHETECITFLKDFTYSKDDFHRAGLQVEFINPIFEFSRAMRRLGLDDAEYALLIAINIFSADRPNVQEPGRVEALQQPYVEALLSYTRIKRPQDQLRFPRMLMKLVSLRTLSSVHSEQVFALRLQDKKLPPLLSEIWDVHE
As to the kind of experiment: LXR Gal4 reporter transient transfection assay (FL-M2H Gal4β). Format: cell-based. Particulars: HEK293 cells. Put shortly: (§1)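 Two-hybrid assay pairing LXR constructs (FL aa 1-447/1-461 or LBD aa 155-447/156-461) with coactivator SRC1 or corepressor NCoR in HEK293. Sulfonyl acetic acid stocks contained trifluoroacetic acid. Compounds: 16 h; read-out dual luciferase.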

The target in test [3] is T3, full length (FL) LXRα (Homo sapiens, UniProt Q13133).
T3 construct: the full length (FL) proteins of LXRα (amino acids 1-447); NP005684; expressed in transfected cells; host or cells: HEK293
T3 sequence (Q13133 1-447): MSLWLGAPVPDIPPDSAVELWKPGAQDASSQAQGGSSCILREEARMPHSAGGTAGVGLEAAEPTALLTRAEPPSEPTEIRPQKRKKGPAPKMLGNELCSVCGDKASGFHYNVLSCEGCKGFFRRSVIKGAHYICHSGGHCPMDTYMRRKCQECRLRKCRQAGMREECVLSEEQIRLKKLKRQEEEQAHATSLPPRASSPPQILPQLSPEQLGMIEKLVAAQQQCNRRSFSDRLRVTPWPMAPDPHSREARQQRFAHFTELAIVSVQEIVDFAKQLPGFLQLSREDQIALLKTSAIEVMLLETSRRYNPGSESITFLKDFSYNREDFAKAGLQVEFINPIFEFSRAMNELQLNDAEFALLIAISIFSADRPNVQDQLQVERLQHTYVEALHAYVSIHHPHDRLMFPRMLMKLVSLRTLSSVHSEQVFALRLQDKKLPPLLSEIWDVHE
The test is described as follows: LXR Gal4 reporter transient transfection assay (FL-M2H Gal4α). Format: cell-based. Particulars: HEK293 cells. Put shortly: as §1

[4] abbreviates: TR-FRET, 1 μM 24(S)-25-epoxycholesterol prestimulation, read-out: FRETβ (EC50 range).
Where [5] appears, read: full length LXRβ, read-out: FL-M2H Gal4β (EC50 range).
[6] abbreviates: full length LXRα, read-out: FL-M2H Gal4α (EC50 range).

Like-named read-outs stand apart in the source and are kept apart here.

`O=C(O)c1ccc(-c2cccc(-c3c(-c4cccc5nonc45)c4cc(F)ccc4n3S(=O)(=O)c3ccc(C(F)F)cc3)c2)c(Cl)c1` [11/45]: the EC50 in test [1] (setting [4]), in test [2] (setting [5]) and in test [3] (setting [6]) was less than 100 nM in each case.
As to `Cc1ccc(S(=O)(=O)n2c(-c3cccc(-c4cc(F)c(C(=O)O)cc4Cl)c3)c(-c3ccsc3C#N)c3cc(F)ccc32)cc1` [12/2], the values for the EC50 in test [1] (setting [4]), in test [2] (setting [5]) and in test [3] (setting [6]) were 100 to 1000 nM, less than 100 nM and less than 100 nM, respectively.
In the case of `O=C(O)c1ccc(-c2cccc(-c3c(-c4ccccc4C4(F)CNC4)c4cc(F)ccc4n3S(=O)(=O)c3ccc(C(F)F)cc3)c2)c(Cl)c1` [3/61], the EC50 in test [1] (setting [4]), in test [2] (setting [5]) and in test [3] (setting [6]) was 100 to 1000 nM each time.
Take `Cc1ccc(S(=O)(=O)n2c(-c3cccc(N4CC(C(=O)O)C4)c3)c(-c3ccsc3C#N)c3cc(F)ccc32)c(F)c1` [3/14]: the EC50 was in the range of 1000 to 10000 nM in test [1] (setting [4]), 100 to 1000 nM in test [2] (setting [5]) and 100 to 1000 nM in test [3] (setting [6]).
With `COc1ccc(S(=O)(=O)n2c(-c3cccc(N4CC(C(=O)O)C4)c3)c(-c3ccsc3C#N)c3cc(F)ccc32)cn1` [5/8], the EC50 in test [1] (setting [4]), in test [2] (setting [5]) and in test [3] (setting [6]) was 100 to 1000 nM in each case.
Consider `O=C(O)c1ccc(-c2cccc(-c3c(-c4ccccc4C4COC4)c4cc(F)ccc4n3S(=O)(=O)c3ccc(Cl)cc3)c2)c(Cl)c1` [3/56], for which the EC50 in test [1] (setting [4]), in test [2] (setting [5]) and in test [3] (setting [6]) was less than 100 nM each time.
Consider `Cc1ccc(S(=O)(=O)n2c(-c3cccc(-c4cc(C(=O)O)n[nH]4)c3)c(-c3ccsc3C#N)c3cc(F)ccc32)cc1` [12/6], for which the EC50 lay in the range of 1000 to 10000 nM in test [1] (setting [4]), 1000 to 10000 nM in test [2] (setting [5]) and 100 to 1000 nM in test [3] (setting [6]).
Take `N#Cc1cccc(C#N)c1-c1c(-c2cccc(-c3ccc(C(=O)O)cc3Cl)c2)n(S(=O)(=O)C2CC3CCC2C3)c2ccc(F)cc12` (stereo not drawn) [11/66]: the values for the EC50 in test [1] (setting [4]), in test [2] (setting [5]) and in test [3] (setting [6]) were 100 to 1000 nM, less than 100 nM and less than 100 nM, respectively.
Take `CC(C)(O)c1ccc(S(=O)(=O)n2c(-c3cccc(-c4ccc(C(=O)O)cc4Cl)c3)c(-c3ccccc3C#N)c3cc(F)ccc32)cc1` [30/16]: the values for the EC50 in test [1] (setting [4]), in test [2] (setting [5]) and in test [3] (setting [6]) were 1000 to 10000 nM, 100 to 1000 nM and 100 to 1000 nM, respectively.
As to `Cc1ccc(S(=O)(=O)n2c(-c3cccc(N4CC(C(=O)O)C4)c3)c(-c3ccsc3C#N)c3sccc32)cc1` [4/3], the figures for the EC50 in test [1] (setting [4]), in test [2] (setting [5]) and in test [3] (setting [6]) were 1000 to 10000 nM, less than 100 nM and less than 100 nM, respectively.
Consider `Cc1ccc(S(=O)(=O)n2c(-c3cccc(C4CC(C(=O)O)C4)c3)c(-c3ccsc3C#N)c3cc(F)ccc32)cc1` (stereo not drawn) [3/39], for which the EC50 in test [1] (setting [4]) was 100 to 1000 nM; in test [2] (setting [5]), less than 100 nM; in test [3] (setting [6]) it was 100 to 1000 nM.
On to `Cc1ccc(S(=O)(=O)n2c(-c3cccc(-c4ccc(C(=O)O)c(F)c4Cl)c3)c(-c3ccsc3C#N)c3cc(F)ccc32)cc1` [12/3], for which the EC50 was 100 to 1000 nM in test [1] (setting [4]), less than 100 nM in test [2] (setting [5]) and less than 100 nM in test [3] (setting [6]).
In the case of `O=C(O)c1ccc(-c2cccc(-c3c(-c4ncccc4OC(F)F)c4cc(F)ccc4n3S(=O)(=O)c3ccc(C(F)F)cc3)c2)c(Cl)c1` [11/41], the EC50 in test [1] (setting [4]), in test [2] (setting [5]) and in test [3] (setting [6]) was less than 100 nM throughout.
Turning to `CCc1ccc(S(=O)(=O)n2c(-c3cccc(N4CC(C(=O)O)C4)c3)c(-c3ccsc3C#N)c3cc(F)ccc32)cc1` [3/10], the EC50 in test [1] (setting [4]) was 100 to 1000 nM; in test [2] (setting [5]), less than 100 nM; in test [3] (setting [6]), 100 to 1000 nM.
As to `Cc1ccc(S(=O)(=O)n2c(-c3cccc(C#CC(C)(C)C(=O)O)c3)c(-c3ccsc3C#N)c3cc(F)ccc32)cc1` [5/4], the values for the EC50 in test [1] (setting [4]), in test [2] (setting [5]) and in test [3] (setting [6]) were 1000 to 10000 nM, less than 100 nM and 100 to 1000 nM, respectively.
Taken in the same sequence, the figures for `N#Cc1sccc1-c1c(-c2cccc(-c3cc(F)c(C(=O)O)cc3Cl)c2)n(S(=O)(=O)c2ccc(C(F)F)cc2)c2ccc(F)cc12` [11/8] were less than 100 nM, less than 100 nM and less than 100 nM.
For `COc1cccnc1-c1c(-c2cccc(-c3ccc(C(=O)O)cc3Cl)c2)n(S(=O)(=O)c2ccc(C(F)F)cc2)c2ccc(F)cc12` [11/40], in that order: 100 to 1000 nM, less than 100 nM and less than 100 nM.
Taken in the same sequence, the figures for `Cc1n[nH]c(C)c1-c1c(-c2cccc(-c3ccc(C(=O)O)cc3Cl)c2)n(S(=O)(=O)c2ccc(C(F)F)cc2)c2ccc(F)cc12` [11/24] were 100 to 1000 nM, 100 to 1000 nM and 100 to 1000 nM.
In the case of `Cc1ccc(S(=O)(=O)n2c(-c3cccc(-c4ccc(C(=O)O)nc4)c3)c(-c3ccsc3C#N)c3cc(F)ccc32)cc1` [3/47], the figures for the EC50 in test [1] (setting [4]), in test [2] (setting [5]) and in test [3] (setting [6]) were 100 to 1000 nM, less than 100 nM and less than 100 nM, respectively.
As to `CC(C)(C)OC(=O)CNC(=O)c1ccc(-c2cccc(-c3c(-c4c(C#N)cccc4C#N)c4cc(F)ccc4n3S(=O)(=O)c3ccc(C(F)F)cc3)c2)c(Cl)c1` [6/3], the EC50 in test [1] (setting [4]), in test [2] (setting [5]) and in test [3] (setting [6]) was less than 100 nM in each case.
With `COc1cccc(-c2c(-c3cccc(-c4ccc(C(=O)O)cc4Cl)c3)n(S(=O)(=O)c3ccc(C)cc3)c3ccc(F)cc23)c1C#N` [11/3], the EC50 in test [1] (setting [4]), in test [2] (setting [5]) and in test [3] (setting [6]) was less than 100 nM throughout.
Turning to `Cc1ccc(S(=O)(=O)n2c(-c3cccc(N4CC(C(=O)NC(C)(C)C(=O)O)C4)c3)c(-c3ccsc3C#N)c3cc(F)ccc32)cc1` [3/52], the EC50 in test [1] (setting [4]), in test [2] (setting [5]) and in test [3] (setting [6]) was 100 to 1000 nM throughout.
For the compound `Cc1ccc(S(=O)(=O)n2c(-c3cccc(-c4cccc(S(C)(=O)=Nc5nnn[nH]5)c4)c3)c(-c3ccsc3C#N)c3cc(F)ccc32)cc1` (stereo not drawn) [37/1], the EC50 in test [1] (setting [4]), in test [2] (setting [5]) and in test [3] (setting [6]) was 100 to 1000 nM in each case.
In the case of `Cc1ccc(S(=O)(=O)n2c(-c3cccc(N4[C@@H]5CC[C@H]4C[C@@H](C(=O)O)C5)c3)c(-c3ccsc3C#N)c3cc(F)ccc32)cc1` [3/58], the EC50 was 1000 to 10000 nM in test [1] (setting [4]), less than 100 nM in test [2] (setting [5]) and less than 100 nM in test [3] (setting [6]).
For `O=C(NCCS(=O)(=O)O)C1CC1c1cccc(-c2c(-c3c(Cl)cccc3Cl)c3cc(F)ccc3n2S(=O)(=O)c2ccc(C(F)F)cc2)c1` (stereo not drawn) [10/4], the EC50 is less than 100 nM in test [1] (setting [4]), less than 100 nM in test [2] (setting [5]) and 100 to 1000 nM in test [3] (setting [6]).
On to `O=C(O)c1ccc(-c2cccc(-c3c(-c4ccccc4)c4cc(F)ccc4n3S(=O)(=O)c3ccc(C(F)F)cc3)c2)c(Cl)c1` [C11/39, reference compound], for which, in test [1] (1 μM 24(S)-25-epoxycholesterol as prestimulating agonist), the “FRETβ efficacy (value in brackets)” value is −91%. Further, the EC50 in test [1] (1 μM 24(S)-25-epoxycholesterol as prestimulating agonist, read-out: FRETβ potency) was 104 nM; in test [1] (setting [4]), 100 to 1000 nM; in test [2] (setting [5]), less than 100 nM; in test [2] (read-out: FL-M2H Gal4β potency), 14 nM; in test [3] (setting [6]), less than 100 nM; in test [3] (read-out: FL-M2H Gal4α potency), 14 nM. The “FL-M2H Gal4β efficacy (value in brackets)” value in test [2] was 140%. The “FL-M2H Gal4α efficacy (value in brackets)” value in test [3] is on record as 117%.
